# Measured values as given in US10858688B2, “Observation method using binding and dissociation probe” (KYOTO UNIVERSITY, priority 2015, dated 2020).
# Where no end group is shown, it is not given here.
# Key:
# microtubule [1] = assay: Localization test of probe candidates (integrated SiMS images); assay type: cell-based, Xenopus laevis; parameters: key: “localization” is positive (P) when above criterion (1) is met; conditions: fixed, permeabilized XTC cell; lysate supernatant of EGFP fused probe; TIRF, 10000 frames
# Method: (§1) HEK (Human embryonic kidney)-293F cells were transfected with a plasmid encoding a probe candidate protein tagged with FLAG-EGFP or 3×FLAG-EGFP. […] Centrifugal separation was performed on the lysate and the supernatant liquid was collected. In order to perform screening for a probe for IRIS, the binding capacity of a probe candidate in the supernatant liquid with respect to the structure of an XCT cell that was fixed with paraformaldehyde (PFA) and that received a permeabilization process was tested. The appearance and disappearance of single molecule speckles (Single-molecule speckles, SiMS) in the structure was tested. Screening was performed for a probe for IRIS in accordance with the following criteria:
# (§2) (1) It is possible to confirm a distribution of target substances in the structure in an image resulting from adding SiMS images;
# (§3) The localization test of the above (1), whose result is shown in table 1, was performed in the following procedures. First, the supernatant liquid of lysate of a cell that expressed each probe candidate was brought into contact with an XCT cell that was fixed on a coverglass and that received a permeabilization process. […] The obtained speckle images of 10000 frames were integrated so as to confirm whether or not a distribution of target substances in the cell (microtubule, intermediate filament, focal adhesion or actin filament) was able to be confirmed. When a distribution of a target substances was able to be confirmed, the result of the localization test was treated as P (positive).
# microtubule [2] = assay: Washability test of probe candidates; assay type: cell-based, Xenopus laevis; parameters: key: “washability” is positive (P) when above criterion (2) is met; conditions: speckles equal to or less than about 10% after switching imaging solution 10 to 20 times
# Method: (§4) (2) It is possible to wash and remove a probe after SiMS imaging (imaging step);
# (§5) The […] of the above (2), whose result is shown in table 1, was performed in the following procedures. […] This switching of imaging solution was conducted slowly so that the observation position would not shift. Next, an imaging solution not containing a probe and not containing the active oxygen-scavenging mix was switched 10 to 20 times. After the switching, for confirmation, for an XCT cell sample in the observation chamber, speckle images of 10 frames were picked up under a similar condition to that of the localization test described in the previous paragraph, and when the number of speckles confirmed in the speckle images (i.e., the number of probes that had bound) became sufficiently smaller (equal to or less than about 10%) than the number of the speckles in the speckle images before the washing operation, washing was determined to be possible and the result was treated as P (positive).
# microtubule [3] = assay: Measurement of binding half-life of probe-target complex; parameters: species or system Xenopus laevis; conditions: fixed XTC cell, single exponential fit
# Text: (§6) A probe and a target substance have the following binding characteristics. […] The above half-life herein is preferably a half-life of a probe-target complex formed by binding between a probe and a target substance in a case when a medium containing a probe and a sample containing a target substance that is to be observed are brought into contact under a condition for performing an imaging step. […] Measurement procedures for the half-life are as below. […] Ndissociation is a cumulative relative frequency of a probe that dissociated. A cumulative relative frequency is a ratio of the speckles that disappeared within a given period of time to the total number of measured speckles (i.e. probes) (i.e. probes that dissociated within a given period of time), and represents the total number as 1. Then, by fitting the above complementary cumulative relative frequency function with an exponent function, that half-life is calculated.
# The measurement of binding half-life, whose result is shown in table 1, was performed in the following procedures. Speckle images of 10000 frames picked up in the localization test were used in order to measure a period of time between the appearance of a probe that has bound to a target in a speckle image and disappearance through dissociation in a semi-manual mode by using Speckle TrackerJ, an ImageJ plug-in. In case of for example picking up of images with an exposure time of 50 ms and at a frame rate of 20 Hz, it is assumed that a period of time between the appearance and disappearance of a speckle that is observed in only one of consecutive frames is 50 ms and a period of time between the appearance and disappearance of a speckle observed in only two consecutive frames is 100 ms. […] Ndissociation is a cumulative relative frequency of probes that dissociated. Then, by fitting the complementary cumulative relative frequency function with an exponent function, the half-life was calculated. However, the binding half-life with respect to an actin filament of Atto488-Lifeact was measured by using a method that is described in detail in the section for FIG. 9 in the Brief Description of the Drawings.
# microtubule [4] = assay: IRIS image test (reconstruction image); assay type: cell-based, Xenopus laevis; parameters: key: “IRIS image” is positive (P) when above criterion (3) is met; conditions: reconstruction from 10000 frames with DAOSTORM
# Method: (§7) […] It is possible to reconstruct an image of a target substance by integrating the central positions of the respective speckles. The IRIS image test of the above (3) whose result is described in table 1 was performed in the following procedures. By using all the speckle images of 10000 frames picked up in the localization test, the central point of a probe that has bound to a target in each frame of the speckle images was determined with nanometer accuracy by using DAOSTORM. By adding a large number of pieces of central point information in the fluorescence images of 10000 frames, a reconstruction image (observation image) was generated. Whether or not a distribution of a target molecule was able to be observed in that reconstruction image was determined, and when a distribution of a target molecule was observed, the result was treated as P (positive).
# microtubule [5] = assay: Labeling patterns of microtubules in TIRF IRIS images; assay type: cell-based, Xenopus laevis; conditions: for labeling of microtubule plus end (tip): when EB1 existed (cold methanol-preprocessed cells)
# Text: FIG. 12 show labeling patterns of microtubules by a CLIP-170 fragment (amino acid residues 3-309 of sequence number 12), an APC fragment (amino acid residues 2536-2843 of sequence number 14), a MAP4 fragment (amino acid residues 1-908 of sequence number 4) and Tau isoform 3 (full length of sequence number 5). The patterns are different depending upon procedures for fixing cells. FIG. 12 (a) and FIG. 12 (b) show live-cell imaging during the fixation operation. In FIG. 12 (a), the accumulation of EB1-EGFP at the tips of microtubules disappeared in a process by 3.7% PFA and 0.5% Triton-X 100. In FIG. 12 (b), EB1-EGFP was fixed in a state in which it was accumulated at the tips of the microtubules in a process by cold methanol. […] With these probes, IRIS images of the entire microtubules were obtained. […] The microtubule tips were labeled strongly with a CLIP-170 fragment while they were weakly labeled with a MAP4 fragment and Tau isoform 3 (see merged images in the lower tier).
# A plurality of IRIS probes for a microtubule and a focal adhesion visualized different sites of their structure bodies. […] The result corresponds to in-vitro data (document 26). Further, Paxillin and the Src fragment visualized different portions of focal adhesion (FIG. 13). Thus, IRIS can also be applied to mapping analysis of a site in which a plurality of protein fragments bind. Development of an IRIS probe that binds to a molecule in a specific state also makes it is possible to perform super-resolution mapping on the molecule in the specific state.
# actin filament = conditions: document 10; cited from earlier work
# focal adhesion [6] = assay: Localization test of probe candidates (integrated SiMS images); assay type: cell-based, Xenopus laevis; parameters: key: “localization” is positive (P) when above criterion (1) is met; conditions: fixed, permeabilized XTC cell; lysate supernatant of EGFP fused probe; TIRF, 10000 frames
# Method: as §1, §2, §3
# focal adhesion [7] = assay: Washability test of probe candidates; assay type: cell-based, Xenopus laevis; parameters: key: “washability” is positive (P) when above criterion (2) is met; conditions: speckles equal to or less than about 10% after switching imaging solution 10 to 20 times
# Method: as §4, §5
# focal adhesion [8] = assay: IRIS image test (reconstruction image); assay type: cell-based, Xenopus laevis; parameters: key: “IRIS image” is positive (P) when above criterion (3) is met; conditions: reconstruction from 10000 frames with DAOSTORM
# Method: as §7
# focal adhesion [9] = assay: Measurement of binding half-life of probe-target complex; parameters: species or system Xenopus laevis; conditions: fixed XTC cell, single exponential fit
# Text: as §6
# The measurement of binding half-life, whose result is shown in table 1, was performed in the following procedures. […] Then, by fitting the complementary cumulative relative frequency function with an exponent function, the half-life was calculated. However, the binding half-life with respect to an actin filament of Atto488-Lifeact was measured by using a method that is described in detail in the section for FIG. 9 in the Brief Description of the Drawings.
HALF-LIFE (microtubule [3]) [s],HALF-LIFE (focal adhesion [9]) [s],Substance,LOCALIZATION (microtubule [1]),WASHABILITY (microtubule [2]),IRIS IMAGE (microtubule [4]),labeling of microtubule (microtubule [5]; when EB1 did not exist (PFA and Triton-X 100)),labeling of microtubule plus end (tip) (microtubule [5]),time of being exchanged on an actin filament (actin filament) [s],LOCALIZATION (focal adhesion [6]),WASHABILITY (focal adhesion [7]),IRIS IMAGE (focal adhesion [8])
0.1,–,"APC 2536-2843: EGFP fused (C terminus) human APC fragment, amino acid residues 2536-2843 of sequence number 14",P,P,P,–,–,–,–,–,–
0.027,–,"APC 2781-2819: EGFP fused (N terminus) human APC fragment, amino acid residues 2781-2819 of sequence number 14 ({EGFP}-VTPFNYNPSPRKSSADSTSARPSQIPTPVNNNTKKRDSK; UniProt P25054 2781-2819, looked up, fragment)",P,P,P,–,–,–,–,–,–
0.044,–,"CLIP-170: EGFP fused (N terminus) rat CLIP-170 fragment, amino acid residues 3-309 of sequence number 12",P,P,P,continuously labeled the entire microtubule,strongly labeled,–,–,–,–
–,–,Lifeact: widely used actin marker; short peptide that stains an actin filament in a live cell or a fixed cell (document 10) (MGVADLIKKFESISKEE),–,–,–,–,–,≤ 0.4,–,–,–
0.109,–,"MAP4 1-908: EGFP fused (N terminus) mouse MAP4 fragment, amino acid residues 1-908 of sequence number 4",P,P,P,–,weakly visualized,–,–,–,–
–,0.196,"Paxillin 1-557: EGFP fused (N terminus) human Paxillin, full length 1-557 of sequence number 15",–,–,–,–,–,–,P,P,P
–,0.246,"Paxillin 54-557: EGFP fused (N terminus) human Paxillin fragment, residues 54-557 of sequence number 15",–,–,–,–,–,–,P,P,P
0.11,–,"TAU ISOFORM 3: EGFP fused (N terminus) human Tau isoform 3, full length 1-383 of sequence number 5",P,P,P,–,weakly visualized,–,–,–,–
0.06,–,"TAU ISOFORM 4: EGFP fused (N terminus) human Tau isoform 4, 1-352 of sequence number 6",P,P,P,–,–,–,–,–,–
